Experiments:
bleeding wounds = assay: Treatment of bleeding wounds for hemostasis; format: in vivo; conditions: used for hemostasis
Excerpt: The inventors determined that the mechanism of this phenomenon was the dehydration, atrophy, and elimination of blood and blood tissues, rather than the well-known mechanism of an astringent of Monsell in the literature in which hemostasis was caused by forming a thrombus of blood platelet and fibrin, aggregation of erythrocyte, and accelerated coagulation of blood.

related diseases = assay: Clinical experiment observations (overall statement); conditions: human, in vivo

ferric subsulfate
observation on bleeding wounds (bleeding wounds): formation of black solid particulate matter was observed
clinical use to treat related diseases (related diseases): successfully used

— patent US8840931B2, “Pharmaceutical compositions for dehydrating, atrophying and eliminating pathological tissues” (priority 2008, dated 2014)
